Measurements from publication PMC3395597, “Structural Basis for the ABO Blood-Group Dependence of Plasmodium falciparum Rosetting” (PLoS Pathogens, 2012).

Biological target: Head(wt) (NTS-DBL1α1-CIDR1γ of PfEMP1-VarO) (Plasmodium falciparum, UniProt B7T1P0)
Assay: surface plasmon resonance (Biacore […]), immobilised trisaccharide-BSA
Assay type: binding
Conditions: labelled compound: multivalent BSA conjugate, 6 atom spacer, average 21 sugar residues per BSA; PBS, 25 °C; protein 10 nM-1 µM

C[C@@H]1O[C@@H](O[C@H]2C(O)O[C@H](CO)[C@H](O)[C@@H]2O[C@H]2O[C@H](CO)[C@H](O)[C@H](O)[C@H]2O)[C@@H](O)[C@H](O)[C@@H]1O (stereo partly shown) [blood group B trisaccharide]
surface plasmon resonance (Biacore 2000), immobilised trisaccharide-BSA: Direct binding of the recombinant Head(wt)domain to the blood group A and B trisaccharides
